Reference: patent publication US9844535B2, “SHP2 inhibitors and methods of treating autoimmune and/or glomerulonephritis-associated diseases using SHP2 inhibitors” (Indiana University Research and Technology Corporation, priority 2013, dated 2017)

Columns and labels:
[1] = system: circulating blood cells of SLE-prone mice; assay: Blood cell counts and circulating lymphocyte subsets; type: in vivo, mouse
Experimental: 50 μl of peripheral blood was collected from mice upon sacrifice and was mixed with 5 mM EDTA anticoagulant to be used for blood cell counts (Hemavet 850FS), to determine numbers of white blood cells (neutrophil, lymphocytes, monocytes, eosinophil and basophil), red blood cells and platelets. In addition, peripheral blood isolated from MRL/lpr mice either treated with vehicle (DMSO) or SHP2 inhibitor was used to count the percentage of lymphocyte subsets, including B cells, CD4+, CD8+ and double negative (DN) T cells through flow cytometry (see below).
To identify immune cell subsets, isolated cells from tissues were immunostained with mouse antibodies targeted against CD3E (145-2C11, BioLegend, San Diego, Calif.), CD4 (GK1.5, BioLegend), CD8 (53-6.7, eBioscience, San Diego, Calif.), CD45 (30-F11, eBioscience), CD 19 (6125, BioLegend), CD11b (M1170, BioLegend), TCRαβ (H57-597, BioLegend), CD44 (IM7, BioLegend), B220 (RA3-6B2, B.D. […], BD Biosciences, San Jose Calif.), CD138 (281-2, BioLegend), CD38 (CD28.2, BioLegend), Gr-1 (RB6.805, eBioscience), CD62L (DREG-56, BioLegend), and CD25 (PC61, BioLegend) for 30 minutes at 4° C. Samples were acquired on a LSR II flow cytometer (BD Biosciences) and the percentage of each sub-population of cells (B, T, monocytes, macrophage and neutrophils) was assessed by FlowJo [version 7.2.2 (Tree Star)]. Total cell numbers were counted using a hemocytometer. Absolute cell numbers for each sub-population were calculated based on the percentage of each population.

SLE-prone MRL/lpr mice = assay: SLE disease progression in MRL/lpr mice (skin, spleen, kidney, thymus, proteinuria, histology, body weight); type: in vivo, mouse
Experimental: Briefly, female MRL/MpJ-fas lpr (MRL/lpr), MRL/Mpj and C57BL/6J mice were purchased from the Jackson Laboratory (Bar Harbor, Me.). For experiments, mice within each group were ip injected with either vehicle (DMSO) or the SHP2 inhibitor (7.5 mg/kg/per day). Testing continued for a period of 6 weeks, starting at 11 weeks of age to 17 weeks. Body weight was measured daily and treatment dosage was adjusted accordingly. At the end of the treatment period, mice were sacrificed with CO2 exsanguination and SLE targeted organs were removed. For each mouse, spleen, kidney, and heart weight were calculated. In addition, total animal body weight and tibia length were measured. Peripheral blood/serum was also collected for use in the cytokine assays described below.
Harvested organs (kidney, spleen, and heart) to be used to assess morphometry and histochemistry were flushed with PBS, perfusion fixed in Bouin's reagent, and paraffin embedded. Sections (5 μm) were stained with Hematoxylin and Eosin (H&E), Periodic acid—Schiff stain (PAS), Masson-Trichrome, or reticulin staining at the Harvard Medical School Rodent Histopathology Core and scored using an unbiased approach, in which histology scores of 1 (normal) to 5 (most severe pathology) were designated to tissue sections which were only numerically labeled and in no particular order (by Dr. Roderick Bronson, director of the Rodent Histopathology Core, Harvard Medical School). Numerical sections were later decoded, marked for their designated score, and statistically analyzed. Images of the tissue sections were obtained and quantified on a Keyence BZ-9000 Microscope (Keyence Corporation, Itasca, Ill.).
To determine kidney function, urine was collected before mice were sacrificed. Albumin and creatinine in the urine were measured using colorimetric assays according to the manufacturer's instructions (Albuwell M; The creatinine companion, Exocell), as described below. The kidney function was calculated as ratio of albumin to creatinine levels.
Albumin and creatinine levels: For the albumin assay, collected mouse urine was diluted at 1:5200× and 50 μl was loaded onto an albumin precoated 96-well plate, followed by primary incubation, secondary incubation and colorimetric determination. For the creatinine assay, the urine was diluted 20× and loaded onto a 96-well plate, and picrate working solution and acid reagent were added sequentially according to protocol. Absorbance was assayed using a plate reader set at a wavelength of 495 nm.
To determine whether inhibition of SHP2 activity affected SLE disease progression, each of the SLE target tissues (i.e., skin, kidney, spleen) was tested in both treated and untreated SLE-prone mice. Particularly, tissues were tested as: WT treated with inhibitor, WT treated with DMSO (vehicle), MRL/mpJ treated with inhibitor, MRL/mpf treated with DMSO (vehicle), MRL/lpr treated with inhibitor, and MRL/lpr treated with DMSO (vehicle).

[2] = MRL/lpr mice, treatment for 6 weeks

Cn1c(-c2cccc(NC(=O)C(=O)Nc3ccc(-c4ccsc4)cc3)c2)c(I)c2cc(C(=O)O)c(O)cc21 [11a-1]
circulating CD4 and CD8 positive T cell populations ([1]; SLE mice): not the CD4 and CD8 positive T cell populations | circulating T cell leukocyte population ([1]; SLE mice): significantly altered in SLE and inhibited | circulating double negative T cells ([1]; SLE mice): only the double negative cells | circulating leukocytes ([1]; SLE mice vs vehicle): significantly reduced | circulating neutrophils, monocytes, eosinophils, basophils ([1]; SLE mice vs vehicle): not neutrophils, monocytes, eosinophils, or basophils | red blood cells or platelets ([1]; SLE mice vs vehicle): no effects observed | white blood cell (WBC) population ([1]; SLE mice vs vehicle): specifically targets the white blood cell (WBC) population | cytotoxic effects during the treatment period (SLE-prone MRL/lpr mice; 7.5 mg/kg/day): no obvious cytotoxic effects | SLE-related disease phenotype in the kidney (histology: glomerulonephritis, fibrosis, immune cell infiltration) (SLE-prone MRL/lpr mice; MRL/lpr mice): prevented the development of this SLE-related disease phenotype in the kidney | unbiased histopathological scoring of kidney (SLE-prone MRL/lpr mice; MRL/lpr mice): quantifiably prevented the development of SLE-related disease phenotype | kidney size (SLE-prone MRL/lpr mice; [2]): normalized the kidney to a size | splenomegaly (spleen size and weight) (SLE-prone MRL/lpr mice; [2]): reduced splenomegaly | PAS staining of kidney tissue (SLE-prone MRL/lpr mice; SLE kidneys): decreased inflammatory infiltration in the tissue, smaller glomeruli, decreased fibrosis, and decreased numbers of mesangial cells surrounding the glomerulus | proteinuria (SLE-prone MRL/lpr mice; SLE mice vs vehicle-treated): significant reduction in proteinuria | thymus size (SLE-prone MRL/lpr mice; SLE-prone mice): decreased thymus size | skin lesions/inflammation (SLE-prone MRL/lpr mice; SLE-prone mice, 7.5 mg/kg/day): reduced the skin lesions/inflammation | body weight during treatment period (SLE-prone MRL/lpr mice; mice, 7.5 mg/kg/day ip): no change in body weight
